Active and inactive are the calls of the source. For most assays here, no stated cut-off is given here; in the data, actives have a measured EC50 and inactives only a lower limit.
What was measured:
[1] = target: T1, Calpain-2 catalytic subunit (Sus scrofa, UniProt P43367); assay: pig calpain II inhibitor potency, dose response, biochemical, fluorogenic peptide substrate (AID 1420); assay type: functional
T1 sequence (P43367 whole entry): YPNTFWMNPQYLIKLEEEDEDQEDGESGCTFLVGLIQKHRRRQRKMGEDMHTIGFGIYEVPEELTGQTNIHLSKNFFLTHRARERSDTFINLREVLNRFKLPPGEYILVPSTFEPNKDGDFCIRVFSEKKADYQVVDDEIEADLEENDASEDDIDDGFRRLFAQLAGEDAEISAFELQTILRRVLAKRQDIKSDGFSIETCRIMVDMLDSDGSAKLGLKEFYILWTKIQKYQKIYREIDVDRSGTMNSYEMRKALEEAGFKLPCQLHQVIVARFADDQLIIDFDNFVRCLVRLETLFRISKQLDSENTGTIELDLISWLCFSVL

[2] = Luminescence Cell-Based Dose Response HTS to Identify Inhibitors of 5'UTR Stem-Loop Driven Prion Protein mRNA Translation in H4 Neuroglioblastoma Cells. [Related pubchem assays: 1827 (Project Summary), 1813 (Primary HTS)]; assay type: functional
[3] = inhibitors of SNCA 5'UTR-driven reporter translation, confirmation, H4 neuroglioma cells, luminescence (AID 1988); assay type: functional, cell-based
[4] = inhibitors of firefly luciferase expression or activity, dose response, H4 neuroglioma cells, luminescence (AID 1990); assay type: functional, cell-based
cells = assay type: functional
Protein RecA = target: T2, Protein RecA (Mycobacterium tuberculosis, UniProt P9WHJ3); assay: Fluorescence Cell-Free Homogeneous Dose Retest to Identify Inhibitors of RecA-Intein Splicing Activity. [Related pubchem assays (depositor defined):AID2097, AID2223, AID489010, AID492950]; assay type: functional
T2 sequence (P9WHJ3 whole entry): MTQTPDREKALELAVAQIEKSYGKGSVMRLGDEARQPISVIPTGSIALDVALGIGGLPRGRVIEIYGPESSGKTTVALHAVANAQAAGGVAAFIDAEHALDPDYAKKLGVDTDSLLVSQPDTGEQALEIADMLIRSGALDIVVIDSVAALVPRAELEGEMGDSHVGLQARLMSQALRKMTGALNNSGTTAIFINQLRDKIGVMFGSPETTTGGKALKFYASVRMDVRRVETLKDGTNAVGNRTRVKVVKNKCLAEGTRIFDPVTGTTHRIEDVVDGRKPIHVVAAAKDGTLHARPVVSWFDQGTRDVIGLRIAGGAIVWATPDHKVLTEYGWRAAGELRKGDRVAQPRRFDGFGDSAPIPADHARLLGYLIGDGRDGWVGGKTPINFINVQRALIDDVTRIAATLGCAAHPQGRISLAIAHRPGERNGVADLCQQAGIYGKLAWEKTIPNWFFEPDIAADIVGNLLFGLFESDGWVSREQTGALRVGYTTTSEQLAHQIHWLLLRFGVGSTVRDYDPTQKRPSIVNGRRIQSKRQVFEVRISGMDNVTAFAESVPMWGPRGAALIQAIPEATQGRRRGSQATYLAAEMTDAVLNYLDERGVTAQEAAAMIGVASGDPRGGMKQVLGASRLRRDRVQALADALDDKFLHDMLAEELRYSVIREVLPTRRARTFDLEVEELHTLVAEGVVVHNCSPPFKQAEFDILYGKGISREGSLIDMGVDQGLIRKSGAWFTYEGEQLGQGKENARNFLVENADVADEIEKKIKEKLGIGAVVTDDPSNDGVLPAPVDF

H4 = assay: Luminescence Cell-Based Dose Response HTS to Identify Activators of 5'UTR Stem-Loop Driven Prion Protein mRNA Translation in H4 Neuroglioblastoma Cells. [Related pubchem assays: 1829 (Project Summary), 1814 (Primary HTS)]; assay type: functional; settings: Homo sapiens
[5] = target: T3, Rac GTPase-activating protein 1 (Homo sapiens, UniProt Q9H0H5); assay: MgcRacGAP GTPase-activating activity inhibitors, confirmation, biochemical, ADP Hunter fluorescence, primary and confirmatory (AID 624330); assay type: functional
T3 sequence (Q9H0H5 whole entry): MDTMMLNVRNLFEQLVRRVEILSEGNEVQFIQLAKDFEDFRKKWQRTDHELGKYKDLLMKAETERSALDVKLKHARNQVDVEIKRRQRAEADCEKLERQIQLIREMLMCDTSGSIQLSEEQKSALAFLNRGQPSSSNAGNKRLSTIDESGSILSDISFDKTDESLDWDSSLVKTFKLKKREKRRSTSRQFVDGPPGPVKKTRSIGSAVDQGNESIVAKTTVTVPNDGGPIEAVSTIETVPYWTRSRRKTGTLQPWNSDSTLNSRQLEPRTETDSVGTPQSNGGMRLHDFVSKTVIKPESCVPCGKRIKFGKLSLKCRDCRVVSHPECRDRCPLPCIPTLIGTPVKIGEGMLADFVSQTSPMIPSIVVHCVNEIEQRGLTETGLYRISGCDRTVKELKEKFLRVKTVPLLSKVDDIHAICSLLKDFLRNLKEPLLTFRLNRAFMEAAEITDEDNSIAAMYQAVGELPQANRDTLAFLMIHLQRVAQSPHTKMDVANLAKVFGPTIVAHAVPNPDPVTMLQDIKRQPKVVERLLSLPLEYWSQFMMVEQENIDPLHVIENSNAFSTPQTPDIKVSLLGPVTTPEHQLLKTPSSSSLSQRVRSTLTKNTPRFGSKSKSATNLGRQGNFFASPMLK

[6] = target: T4, Replicative DNA helicase DnaB (Mycobacterium tuberculosis, UniProt P9WMR3); assay: DnaB intein splicing inhibitors, dose response, biochemical, cell-free fluorescence (AID 449749); assay type: functional
T4 sequence (P9WMR3 whole entry): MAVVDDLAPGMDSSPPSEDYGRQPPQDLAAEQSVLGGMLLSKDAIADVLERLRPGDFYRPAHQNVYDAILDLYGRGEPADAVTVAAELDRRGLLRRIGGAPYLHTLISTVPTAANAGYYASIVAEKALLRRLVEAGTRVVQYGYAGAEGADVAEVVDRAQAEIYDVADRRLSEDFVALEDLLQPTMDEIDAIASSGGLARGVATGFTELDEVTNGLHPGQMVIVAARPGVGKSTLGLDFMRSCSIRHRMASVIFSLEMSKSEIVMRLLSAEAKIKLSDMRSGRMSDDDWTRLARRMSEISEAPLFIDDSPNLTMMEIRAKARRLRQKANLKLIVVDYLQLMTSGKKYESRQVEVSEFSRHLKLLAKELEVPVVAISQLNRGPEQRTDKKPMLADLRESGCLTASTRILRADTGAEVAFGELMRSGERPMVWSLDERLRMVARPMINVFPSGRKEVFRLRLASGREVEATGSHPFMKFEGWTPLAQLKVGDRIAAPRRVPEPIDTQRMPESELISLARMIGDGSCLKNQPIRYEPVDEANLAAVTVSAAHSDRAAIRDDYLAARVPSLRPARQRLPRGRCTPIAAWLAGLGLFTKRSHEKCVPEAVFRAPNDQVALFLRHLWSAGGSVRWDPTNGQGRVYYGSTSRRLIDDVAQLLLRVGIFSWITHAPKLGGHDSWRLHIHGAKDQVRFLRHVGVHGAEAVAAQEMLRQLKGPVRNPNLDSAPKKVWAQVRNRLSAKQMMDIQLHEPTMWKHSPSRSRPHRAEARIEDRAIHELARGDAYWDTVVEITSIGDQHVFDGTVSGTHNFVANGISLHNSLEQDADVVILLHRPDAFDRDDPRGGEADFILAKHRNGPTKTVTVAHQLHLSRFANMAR

[7] = Luminescence Cell-Based Dose Response HTS to Identify Activators of Luciferase Translation or Activity in H4 […] Cells. [Related pubchem assays: 1829 (Project Summary), 1814 (Primary HTS)]; assay type: functional
[8] = cytotoxicity toward DRD oncogenic fibroblasts, dose response, cell-based, non-viral oncogenic, luminescence (AID 1934); assay type: functional; settings: Homo sapiens
BJ [9] = assay: cells; assay type: functional, cell-based; settings: Homo sapiens
BJ [10] = assay: cytotoxicity toward BJ-TERT-LT-ST fibroblasts, dose response, cell-based, RAS-independent, luminescence (AID 1935); assay type: functional; settings: Homo sapiens;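 further: BJ fibroblasts immortalized with TERT plus LT and ST oncogenes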
BJ [11] = assay: cytotoxicity toward BJ-TERT fibroblasts, dose response, cell-based, RAS-independent, luminescence (AID 1933); assay type: functional; settings: Homo sapiens
[12] = target: Luciferin 4-monooxygenase (Photinus pyralis, UniProt P08659); assay: firefly luciferase enzyme inhibitors, dose response, biochemical, luminescence (AID 1891)
Sequence of Luciferin 4-monooxygenase (P08659 whole entry): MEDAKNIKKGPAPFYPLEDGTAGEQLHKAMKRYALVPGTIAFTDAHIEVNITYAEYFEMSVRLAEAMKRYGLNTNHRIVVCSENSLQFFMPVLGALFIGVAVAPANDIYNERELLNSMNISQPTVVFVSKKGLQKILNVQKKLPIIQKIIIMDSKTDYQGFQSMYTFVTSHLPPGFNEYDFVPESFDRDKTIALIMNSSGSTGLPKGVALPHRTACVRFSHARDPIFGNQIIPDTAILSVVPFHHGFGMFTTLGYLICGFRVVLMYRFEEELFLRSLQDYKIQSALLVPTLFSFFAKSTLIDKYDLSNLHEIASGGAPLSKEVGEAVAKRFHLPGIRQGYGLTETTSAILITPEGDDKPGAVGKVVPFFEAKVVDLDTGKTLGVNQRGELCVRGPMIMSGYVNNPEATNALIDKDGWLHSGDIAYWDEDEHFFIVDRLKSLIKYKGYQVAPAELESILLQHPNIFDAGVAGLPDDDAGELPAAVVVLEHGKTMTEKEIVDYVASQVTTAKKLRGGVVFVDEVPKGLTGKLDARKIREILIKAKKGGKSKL

[13] = target: T5, Heat shock factor protein 1 (Mus musculus, UniProt P38532); assay: inhibition of MG132-induced HSE-luciferase signal, confirmation, cell-based, NIH3T3, luminescence, dose retest (AID 2382); assay type: functional;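 further: NIH3T3 fibroblasts with HSF1-driven luciferase reporter stressed by proteasome inhibitor MG132; luminescence from HSF1-driven luciferase expression after 8 hours of MG132 stress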
T5 sequence (P38532 whole entry): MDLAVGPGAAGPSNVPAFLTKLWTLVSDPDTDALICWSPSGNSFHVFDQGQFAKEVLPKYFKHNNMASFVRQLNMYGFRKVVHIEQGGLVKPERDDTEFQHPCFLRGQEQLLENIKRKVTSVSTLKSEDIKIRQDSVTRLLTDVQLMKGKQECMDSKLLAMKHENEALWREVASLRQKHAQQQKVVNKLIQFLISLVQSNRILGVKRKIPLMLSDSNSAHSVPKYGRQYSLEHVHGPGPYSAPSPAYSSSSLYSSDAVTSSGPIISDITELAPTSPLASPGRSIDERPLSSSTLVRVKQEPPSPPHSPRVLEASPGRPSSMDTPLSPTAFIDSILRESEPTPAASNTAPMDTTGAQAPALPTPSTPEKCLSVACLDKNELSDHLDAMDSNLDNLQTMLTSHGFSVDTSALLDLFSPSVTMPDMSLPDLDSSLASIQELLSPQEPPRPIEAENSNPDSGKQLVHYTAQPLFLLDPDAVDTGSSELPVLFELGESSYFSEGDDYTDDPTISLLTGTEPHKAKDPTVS

[14] = Luminescence Cell-Based Dose Confirmation HTS to Identify Inhibitors of Platelet Dense Granule Release. [Related pubchem assays: 1663 (Primary HTS), 1678 (Summary of Project)]; assay type: functional

CCC(C)C(=O)Nc1ccc([N+](=O)[O-])cc1OC (stereo not given)
IC50 [1]: 16.1 µM (not active)

CCCN1CCC(=NNc2ccc(S(=O)(=O)N3CCOCC3)cc2[N+](=O)[O-])CC1
EC50 [2]: 13.8 µM (active) | EC50 [3]: 6.57 µM (active) | EC50 [4]: 11.1 µM (inconclusive)

Cc1ccc(SC[C@H](Cc2ccccc2)N2CCN(CCc3ccccc3)CCC2=O)cc1
IC50 [1]: 5.01 µM (not active)

CCOc1ccc(NC(=S)NC(=O)/C=C/c2ccc(OC)cc2)c([N+](=O)[O-])c1
IC50 [1]: 17.2 µM (not active)

CCOC(=O)Cn1c(C)c(Br)c(=O)c2cccc(C)c21
IC50 (cells): 11.2 µM (active)

Cn1nnc(NC(=O)COc2ccc(C3CCCCC3)cc2)n1
IC50 (cells): 23.3 µM (active)

CCOC(=O)c1ccc(NC(=O)Nc2ncccc2C)cc1
IC50 [1]: 12.4 µM (not active)

O=C(CCSc1ccccn1)c1ccccc1
IC50 (cells): 23.2 µM (active)

CCC1CCCCN1C(=O)c1ccc(OC2CCN(C(=O)C3CC3)CC2)cc1 (stereo not given)
IC50 [1]: > 50 µM (not active)

O=Cc1ccc(-n2nncc2-c2ccc([N+](=O)[O-])cc2)cc1
IC50 [1]: 12.6 µM (not active)

COc1cc(/C=C2\C(=O)N(CCC#N)N=C2C)ccc1OCC(=O)Nc1ccccc1
EC50 (Protein RecA): 2.79 µM (active) | EC50 (H4): 64.8 µM (active) | IC50 [5]: 144 µM (active) | AC50 [6]: 3.74 µM (active) | EC50 [7]: < 0.1 µM (active)

CCOC(=O)c1c(NC(=O)CNC2CCCCC2)sc(C)c1C
IC50 [1]: 6.04 µM (not active)

CC(C)Cn1c(N)c(C(=O)COC(=O)c2ccccc2F)c(=O)n(C)c1=O
IC50 [1]: > 50 µM (not active)

COc1ccc(C2CC(C(F)(F)F)n3ncc(C(=O)Nc4cccc(O)c4)c3N2)cc1OC (stereo not given)
EC50 [2]: 23.2 µM (active) | EC50 [3]: 54.7 µM (active) | EC50 [4]: 20.3 µM (active)

O=C(Nc1cnn(Cc2ccc(F)cc2)c1)c1cc2nc(-c3ccco3)cc(C(F)(F)F)n2n1
IC50 [1]: 0.777 µM (not active)

O=S(=O)(c1ccc2c(c1)OCCO2)N1CCc2ccccc21
IC50 [1]: > 50 µM (not active)

CCCCNc1nc(NC)nc(Cl)c1SC
EC50 [2]: > 120 µM (not active) | EC50 [3]: > 120 µM (not active) | EC50 [4]: > 120 µM (not active)

CCOC(=O)c1c(C)nc2sc3c(=O)n(-c4ccc(OC)cc4)cnc3c2c1-c1ccc(OC)cc1
EC50 [2]: > 120 µM (not active) | EC50 [3]: 21.1 µM (active) | EC50 [4]: 12.9 µM (active)

COc1cc(OC)cc(C(=O)NCCN2CCOCC2)c1
IC50 [1]: 48.3 µM (not active)

O=C(O)COc1cccc(/C=C2/SC(=S)N(Cc3ccccc3)C2=O)c1
EC50 (Protein RecA): 10.1 µM (active) | EC50 [8]: > 150 µM (not active) | EC50 (BJ [9]): > 150 µM (not active) | AC50 [6]: 9.8 µM (active) | EC50 (BJ [10]): > 150 µM (inconclusive) | EC50 (BJ [11]): > 150 µM (not active)

CCOC(=O)CN1N=C(/C=C/c2ccc(C(C)C)cc2)CCC1=O
IC50 [1]: 9.2 µM (active)

COc1cc(O)oc1/C=N/c1ccc(C(=O)O)cc1
EC50 [8]: 10.7 µM (active) | EC50 (BJ [9]): 9.97 µM (active) | EC50 [12]: 10.7 µM (active) | EC50 [13]: > 195 µM (not active) | EC50 (BJ [10]): > 150 µM (inconclusive) | EC50 [14]: 2.74 µM (active) | EC50 (BJ [11]): 13.7 µM (active)

C/C(CC(=O)Nc1ccccn1)=N\NC(=O)c1ccccc1O
EC50 [2]: 10.9 µM (active) | EC50 [3]: 12.7 µM (active) | EC50 [4]: 14 µM (active)

CN(C)c1ccc2nc3ccc(N(C)C)cc3[s+]c2c1 [METHYLENE BLUE ANHYDROUS]
EC50 [2]: 11.1 µM (inconclusive) | EC50 [3]: 5.46 µM (inconclusive)
